PubChem BioAssay AID248 (DTP/NCI, 2004)
Several values for one entry are separate records, joined by “and”; a condition that tells them apart may be missing. Identical values can stand only once. Toxic doses and inconclusive results are not listed. Rule as the data show it: active = T/C of 150% or more; inactive = T/C below 125%.

System: L1210 leukemia ip in BDF1 mice, survival T/C
Assay: NCI In Vivo Anticancer Drug Screen. Data for tumor model L1210 Leukemia (intraperitoneal) in B6D2F1 (BDF1) mice
Settings: endpoint: mean survival time, higher = longer survival
Method in brief: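 Tumor cells were implanted, animals were treated, and survival was followed. The result divides the treated measurement by the vehicle-control measurement.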

[1] = dose: 100.0 mg/kg/injection, schedule: Q01DX009 (ip), vehicle: Klucel (hydroxypropylcellulose) (HPC)
[2] = dose: 200.0 mg/kg/injection, schedule: Q01DX009 (ip), vehicle: Klucel (hydroxypropylcellulose) (HPC)
[3] = dose: 100.0 mg/kg/injection, schedule: Q01DX001 (ip), vehicle: saline
[4] = dose: 200.0 mg/kg/injection, schedule: Q01DX001 (ip), vehicle: saline
[5] = dose: 400.0 mg/kg/injection, schedule: Q01DX001 (ip), vehicle: saline
[6] = dose: 100.0 mg/kg/injection, schedule: Q04DX002 (ip), vehicle: Klucel (hydroxypropylcellulose) (HPC)
[7] = dose: 200.0 mg/kg/injection, schedule: Q04DX002 (ip), vehicle: Klucel (hydroxypropylcellulose) (HPC)
[8] = dose: 100.0 mg/kg/injection, schedule: Q01DX009 (ip), vehicle: saline
[9] = dose: 200.0 mg/kg/injection, schedule: Q01DX009 (ip), vehicle: saline
[10] = dose: 400.0 mg/kg/injection, schedule: Q01DX009 (ip), vehicle: saline

Measured: T/C

CN1CCCCC1C[CH2][Sn]([c]1ccccc1)([c]1ccccc1)[c]1ccccc1 (stereo not given)
inactive: dose: 3.12 mg/kg/injection, schedule: Q01DX009 (ip), vehicle: Klucel (hydroxypropylcellulose) (HPC) 90 % of control | dose: 6.25 mg/kg/injection, schedule: Q01DX009 (ip), vehicle: Klucel (hydroxypropylcellulose) (HPC) 90 % of control | dose: 12.5 mg/kg/injection, schedule: Q01DX009 (ip), vehicle: Klucel (hydroxypropylcellulose) (HPC) 92 % of control | dose: 12.5 mg/kg/injection, schedule: Q04DX002 (ip), vehicle: Klucel (hydroxypropylcellulose) (HPC) 93 % of control | dose: 25.0 mg/kg/injection, schedule: Q04DX002 (ip), vehicle: Klucel (hydroxypropylcellulose) (HPC) 96 % of control

COC1=CCC2=C(CCO2)C1
inactive: dose: 100.0 mg/kg/injection, schedule: Q04DX003 (ip), vehicle: acetone 95 % of control | dose: 200.0 mg/kg/injection, schedule: Q04DX003 (ip), vehicle: acetone 95 % of control | dose: 400.0 mg/kg/injection, schedule: Q04DX003 (ip), vehicle: acetone 96 % of control

Oc1ccc(CNc2nn[nH]n2)cc1
inactive: dose: 100.0 mg/kg/injection, schedule: Q04DX003 (ip), vehicle: saline with Tween-80 94 % of control | dose: 200.0 mg/kg/injection, schedule: Q04DX003 (ip), vehicle: saline with Tween-80 96 % of control | dose: 400.0 mg/kg/injection, schedule: Q04DX003 (ip), vehicle: saline with Tween-80 96 % of control

C=CCOC(=O)Nc1ccccc1
inactive: dose: 100.0 mg/kg/injection, schedule: Q01DX001 (ip), vehicle: Klucel (hydroxypropylcellulose) (HPC) 92 % of control and 90 % of control | [1] 106 % of control | dose: 200.0 mg/kg/injection, schedule: Q01DX001 (ip), vehicle: Klucel (hydroxypropylcellulose) (HPC) 93 % of control and 94 % of control | [2] 95 % of control | dose: 300.0 mg/kg/injection, schedule: Q01DX001 (ip), vehicle: Klucel (hydroxypropylcellulose) (HPC) 97 % of control | dose: 400.0 mg/kg/injection, schedule: Q01DX009 (ip), vehicle: Klucel (hydroxypropylcellulose) (HPC) 101 % of control

CC1=C(O)c2ccccc2C(=O)C1=O
inactive: dose: 50.0 mg/kg/injection, schedule: Q01DX Z (ip), vehicle: other 93 % of control

CC(/C=N/NC(N)=S)=N\NC(N)=S
inactive: dose: 12.5 mg/kg/injection, schedule: Q01DX Z (oral), vehicle: carboxymethylcellulose (CMC) 106 % of control | dose: 25.0 mg/kg/injection, schedule: Q01DX Z (oral), vehicle: carboxymethylcellulose (CMC) 113 % of control | dose: 50.0 mg/kg/injection, schedule: Q01DX001 (ip), vehicle: carboxymethylcellulose (CMC) 97 % of control | dose: 50.0 mg/kg/injection, schedule: Q01DX Z (ip), vehicle: carboxymethylcellulose (CMC) 95 % of control | dose: 50.0 mg/kg/injection, schedule: Q01DX Z (oral), vehicle: carboxymethylcellulose (CMC) 113 % of control | dose: 100.0 mg/kg/injection, schedule: Q01DX001 (ip), vehicle: carboxymethylcellulose (CMC) 101 % of control | dose: 100.0 mg/kg/injection, schedule: Q01DX Z (ip), vehicle: carboxymethylcellulose (CMC) 100 % of control | dose: 100.0 mg/kg/injection, schedule: Q01DX Z (oral), vehicle: carboxymethylcellulose (CMC) 124 % of control | dose: 200.0 mg/kg/injection, schedule: Q01DX001 (ip), vehicle: carboxymethylcellulose (CMC) 91 % of control | dose: 200.0 mg/kg/injection, schedule: Q01DX Z (ip), vehicle: carboxymethylcellulose (CMC) 103 % of control | dose: 400.0 mg/kg/injection, schedule: Q01DX001 (ip), vehicle: carboxymethylcellulose (CMC) 97 % of control | dose: 400.0 mg/kg/injection, schedule: Q01DX Z (ip), vehicle: carboxymethylcellulose (CMC) 103 % of control

CC(C)(C)[O][Pb]([c]1ccccc1)([c]1ccccc1)[c]1ccccc1
inactive: dose: 1.56 mg/kg/injection, schedule: Q01DX009 (ip), vehicle: saline with Tween-80 91 % of control

O=C1NCC(CCl)O1 (stereo not given)
inactive: [3] 101 % of control | [4] 91 % of control | [5] 101 % of control

O=[N+]([O-])c1cc(Cl)cc2c1-c1c(Cl)cc(Cl)cc1C2O (stereo not given)
inactive: [1] 91 % of control | dose: 100.0 mg/kg/injection, schedule: Q04DX003 (ip), vehicle: Klucel (hydroxypropylcellulose) (HPC) 104 % of control | [2] 104 % of control | dose: 200.0 mg/kg/injection, schedule: Q04DX003 (ip), vehicle: Klucel (hydroxypropylcellulose) (HPC) 103 % of control | dose: 400.0 mg/kg/injection, schedule: Q04DX003 (ip), vehicle: Klucel (hydroxypropylcellulose) (HPC) 97 % of control

Cc1c(Br)c(C)c(Br)c(OCC(=O)O)c1Br
inactive: [6] 98 % of control | [7] 109 % of control

O=C1NC(=S)NC(=O)C1=Cc1ccncc1
inactive: [3] 105 % of control | [4] 102 % of control | [5] 98 % of control

COc1ccc([N+](=O)[O-])cc1NC(=O)Nc1ccc(CCO)cc1
inactive: dose: 50.0 mg/kg/injection, schedule: Q01DX009 (ip), vehicle: Klucel (hydroxypropylcellulose) (HPC) 92 % of control | [1] 105 % of control | [2] 97 % of control

CCC#CC(O)(C(=O)OCC)C1CCCC1 (stereo not given)
inactive: [3] 105 % of control | [4] 105 % of control | [5] 111 % of control

CCOC(=O)C1C(=O)C=C(C)C(C(=O)OCC)C1c1ccc(N(C)C)cc1 (stereo not given)
inactive: dose: 25.6 mg/kg/injection, schedule: Q04DX002 (ip), vehicle: saline with Tween-80 92 % of control | dose: 64.0 mg/kg/injection, schedule: Q04DX002 (ip), vehicle: saline with Tween-80 96 % of control | dose: 160.0 mg/kg/injection, schedule: Q04DX002 (ip), vehicle: saline with Tween-80 92 % of control | dose: 400.0 mg/kg/injection, schedule: Q04DX002 (ip), vehicle: saline with Tween-80 103 % of control

O=c1cc(-c2ccc(S(=O)(=O)F)cc2)[nH]c2ccc([N+](=O)[O-])cc12
inactive: [8] 101 % of control | [9] 101 % of control | [10] 100 % of control

O=C(O)C(F)(F)C(F)(Cl)C(F)(F)C(F)(Cl)C(F)(F)C(F)(Cl)C(F)(F)Cl (stereo not given)
inactive: [3] 96 % of control and 90 % of control | [4] 110 % of control and 93 % of control | [5] 107 % of control

CCCCNC(=O)C1C2CC3OC(=O)C1C3C2 (stereo not given)
inactive: dose: 12.5 mg/kg/injection, schedule: Q04DX003 (ip), vehicle: saline 89 % of control | dose: 25.0 mg/kg/injection, schedule: Q04DX003 (ip), vehicle: saline 95 % of control | dose: 50.0 mg/kg/injection, schedule: Q04DX003 (ip), vehicle: saline 100 % of control | dose: 100.0 mg/kg/injection, schedule: Q04DX003 (ip), vehicle: saline 95 % of control | dose: 200.0 mg/kg/injection, schedule: Q04DX003 (ip), vehicle: saline 98 % of control | dose: 400.0 mg/kg/injection, schedule: Q04DX003 (ip), vehicle: saline 101 % of control

COc1c(C)c2c(c(O)c1C/C=C(\C)CCC(=O)O)C(=O)OC2
inactive: dose: 12.5 mg/kg/injection, schedule: Q01DX001 (ip), vehicle: saline 96 % of control | dose: 25.0 mg/kg/injection, schedule: Q01DX001 (ip), vehicle: saline 100 % of control | dose: 25.0 mg/kg/injection, schedule: Q01DX009 (ip), vehicle: saline 102 % of control | dose: 50.0 mg/kg/injection, schedule: Q01DX001 (ip), vehicle: saline 103 % of control | dose: 50.0 mg/kg/injection, schedule: Q01DX009 (ip), vehicle: saline 98 % of control | [3] 100 % of control | [8] 107 % of control | [6] 104 % of control | [4] 100 % of control | [9] 118 % of control | [7] 112 % of control | [5] 100 % of control | [10] 124 % of control | dose: 400.0 mg/kg/injection, schedule: Q04DX002 (ip), vehicle: Klucel (hydroxypropylcellulose) (HPC) 112 % of control
